Active and inactive are the calls of the source. No cut-off for these calls is given here.
How the values were obtained:
[1] = test system: MDA-MB-231; assay: Induction cell cycle arrest in human MDA-MB-231 cells assessed as accumulation at G1 phase at 0.4 uM measured after 48 hrs by PI staining based flow cytometry (reference value: 53.7%); assay type: functional
[2] = test system: MDA-MB-231; assay: Antiproliferative activity against human MDA-MB-231 cells assessed as inhibition rate at 10 uM incubated for 72 hrs by MTT assay; assay type: functional
[3] = test system: MDA-MB-231; assay: Induction of apoptosis in human MDA-MB-231 cells assessed as changes in cell morphology and nuclei at 0.1 to 0.4 uM by Hoechst 33342 staining based fluorescence microscopy; assay type: functional; conditions: dose 0.1-0.4 µM
[4] = test system: MDA-MB-231; assay: Induction cell cycle arrest in human MDA-MB-231 cells assessed as increase in p21 expression at 0.4 uM measured after 48 hrs by Western blot analysis; assay type: functional, cell-based
[5] = test system: MDA-MB-231; assay: Induction of ROS generation in human MDA-MB-231 cells by fluorescent dye […] based flow cytometry; assay type: functional, cell-based
[6] = test system: MDA-MB-231; assay: Induction of mitochondrial membrane disruption in human MDA-MB-231 cells assessed as mitochondrial dysfunction at 0.2 uM measured after 48 hrs by JC-1 staining based flow cytometry (reference value: 3%); assay type: functional
[7] = target: T1, DNA topoisomerase 1 (Homo sapiens) (UniProt P11387); assay: Inhibition of topoisomerase 1 (unknown origin) assessed as relaxation of supercoiled plasmid pBR322 DNA at 50 uM incubated for 15 mins by agarose gel electrophoresis
T1 sequence (whole entry): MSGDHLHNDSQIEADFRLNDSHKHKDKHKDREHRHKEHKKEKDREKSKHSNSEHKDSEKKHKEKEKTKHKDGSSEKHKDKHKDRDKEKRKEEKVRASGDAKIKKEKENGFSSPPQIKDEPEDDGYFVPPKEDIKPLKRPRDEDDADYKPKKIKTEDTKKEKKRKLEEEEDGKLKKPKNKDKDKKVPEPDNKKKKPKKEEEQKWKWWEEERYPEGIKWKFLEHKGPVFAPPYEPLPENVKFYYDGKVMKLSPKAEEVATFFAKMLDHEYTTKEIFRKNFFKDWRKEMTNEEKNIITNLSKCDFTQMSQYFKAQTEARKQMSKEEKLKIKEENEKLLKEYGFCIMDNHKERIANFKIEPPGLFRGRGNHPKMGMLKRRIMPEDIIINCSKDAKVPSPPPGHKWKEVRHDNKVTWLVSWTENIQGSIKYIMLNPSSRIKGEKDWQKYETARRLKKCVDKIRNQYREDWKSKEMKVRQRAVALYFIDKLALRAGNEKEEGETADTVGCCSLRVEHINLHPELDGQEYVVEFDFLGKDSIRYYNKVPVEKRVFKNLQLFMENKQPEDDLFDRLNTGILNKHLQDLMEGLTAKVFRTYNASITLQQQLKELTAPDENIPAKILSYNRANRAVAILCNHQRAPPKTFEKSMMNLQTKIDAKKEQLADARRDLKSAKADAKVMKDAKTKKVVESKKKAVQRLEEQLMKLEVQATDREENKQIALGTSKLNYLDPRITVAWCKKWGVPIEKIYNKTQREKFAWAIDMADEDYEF

[8] = test system: MDA-MB-231; assay: Induction cell cycle arrest in human MDA-MB-231 cells assessed as accumulation at S phase at 0.4 uM measured after 48 hrs by PI staining based flow cytometry (reference value: 36%); assay type: functional
[9] = test system: HEK293; assay: cells; assay type: ADME, cell-based; conditions: Homo sapiens, HEK293, 72 h
Description: Antiproliferative activity against HEK293 cells assessed as inhibition rate incubated for 72 hrs by MTT assay

[10] = target: T1, DNA topoisomerase 1 (Homo sapiens); assay: Induction of topoisomerase 1-DNA cleavable complex in human MDA-MB-231 cells assessed as increase in cleavable complex by measuring SDS-K+ precipitable complex at 15 uM measured up to 15 hrs by liquid scintillation counting analysis; assay type: cell-based; conditions: time hrs <=15
[11] = Selectivity index, ratio of IC50 for human MCF-10A cells to IC50 for human MDA-MB-231 cells; conditions: MCF-10A cells versus MDA-MB-231 cells
[12] = test system: MDA-MB-231; assay: Induction of DNA damage in human MDA-MB-231 cells assessed as ROS-mediated oxidative DNA lesions at 0.4 uM measured after 12 hrs by alkaline comet assay; assay type: functional, cell-based
[13] = test system: LoVo; assay: Antiproliferative activity against human LoVo cells assessed as inhibition rate incubated for 72 hrs by MTT assay; assay type: functional, cell-based
[14] = test system: MDA-MB-231; assay: Antiproliferative activity against human MDA-MB-231 cells assessed as inhibition rate at 1 uM incubated for 72 hrs by MTT assay; assay type: functional
[15] = test system: MDA-MB-231; assay: Induction cell cycle arrest in human MDA-MB-231 cells assessed as accumulation at G1 phase at 0.2 uM measured after 48 hrs by PI staining based flow cytometry (reference value: 53.7%); assay type: functional
[16] = test system: MDA-MB-231; assay: Effect on PI3K expression in human MDA-MB-231 cells at 0.4 uM measured after 48 hrs by Western blot analysis; assay type: functional, cell-based
[17] = test system: 4T1; assay: Antiproliferative activity against mouse 4T1 cells assessed as inhibition rate incubated for 72 hrs by MTT assay; assay type: functional, cell-based; conditions: 4T1, 72 h
[18] = test system: MDA-MB-231; assay: Inhibition of PI3K phosphorylation in human MDA-MB-231 cells at 0.4 uM measured after 48 hrs by Western blot analysis; assay type: cell-based
[19] = test system: MDA-MB-231; assay: Antiproliferative activity against human MDA-MB-231 cells transfected with siRNA-Top1 assessed as cell viability by MTT assay; assay type: functional, cell-based
[20] = test system: H22; assay: Antiproliferative activity against mouse H22 cells assessed as inhibition rate incubated for 72 hrs by MTT assay; assay type: functional, cell-based; conditions: H22, 72 h
[21] = test system: MDA-MB-231; assay: Induction cell cycle arrest in human MDA-MB-231 cells assessed as accumulation at S phase at 0.1 uM measured after 48 hrs by PI staining based flow cytometry (reference value: 36%); assay type: functional
[22] = target: DNA topoisomerase 2-alpha (Homo sapiens) (UniProt P11388); assay: Inhibition of topoisomerase 2 (unknown origin) assessed as relaxation of supercoiled kDNA at 100 to 500 uM incubated for 30 mins by agarose gel electrophoresis; conditions: dose 100-500 µM
[23] = test system: MDA-MB-435; assay: Antiproliferative activity against human MDA-MB-435 cells assessed as inhibition rate incubated for 72 hrs by MTT assay; assay type: functional, cell-based; conditions: MDA-MB-435, 72 h
[24] = test system: Breast carcinoma cell; assay: Antitumour activity against human TNBC breast carcinoma cell tissue xenografted PDTX SCID mouse model assessed as reduction in Ki67 expression level at 5 to 20 mg/kg treated for 7 days by immunohistochemical analysis; assay type: functional, organism-based; conditions: dose 5-20 mg/kg, time 7.0 day
[25] = target: T1, DNA topoisomerase 1 (Homo sapiens); assay: Inhibition of topoisomerase 1 (unknown origin) assessed as relaxation of supercoiled plasmid pBR322 DNA upto 500 uM incubated for 15 mins by agarose gel electrophoresis; conditions: dose microM <=500, time 15.0 min
[26] = test system: MCF7; assay: Antiproliferative activity against human MCF7 cells assessed as inhibition rate incubated for 72 hrs by MTT assay; assay type: functional, cell-based; conditions: MCF7, 72 h
[27] = test system: MDA-MB-231; assay: Induction of mitochondrial membrane disruption in human MDA-MB-231 cells assessed as mitochondrial dysfunction at 0.1 uM measured after 48 hrs by JC-1 staining based flow cytometry (reference value: 3%); assay type: functional
[28] = test system: MDA-MB-231; assay: Induction of apoptosis in human MDA-MB-231 cells assessed as increase in cleaved PARP level at 0.4 uM incubated for 48 hrs by Western blot analysis; assay type: functional, cell-based

Sequence of DNA topoisomerase 2-alpha (Homo sapiens) (P11388 whole entry): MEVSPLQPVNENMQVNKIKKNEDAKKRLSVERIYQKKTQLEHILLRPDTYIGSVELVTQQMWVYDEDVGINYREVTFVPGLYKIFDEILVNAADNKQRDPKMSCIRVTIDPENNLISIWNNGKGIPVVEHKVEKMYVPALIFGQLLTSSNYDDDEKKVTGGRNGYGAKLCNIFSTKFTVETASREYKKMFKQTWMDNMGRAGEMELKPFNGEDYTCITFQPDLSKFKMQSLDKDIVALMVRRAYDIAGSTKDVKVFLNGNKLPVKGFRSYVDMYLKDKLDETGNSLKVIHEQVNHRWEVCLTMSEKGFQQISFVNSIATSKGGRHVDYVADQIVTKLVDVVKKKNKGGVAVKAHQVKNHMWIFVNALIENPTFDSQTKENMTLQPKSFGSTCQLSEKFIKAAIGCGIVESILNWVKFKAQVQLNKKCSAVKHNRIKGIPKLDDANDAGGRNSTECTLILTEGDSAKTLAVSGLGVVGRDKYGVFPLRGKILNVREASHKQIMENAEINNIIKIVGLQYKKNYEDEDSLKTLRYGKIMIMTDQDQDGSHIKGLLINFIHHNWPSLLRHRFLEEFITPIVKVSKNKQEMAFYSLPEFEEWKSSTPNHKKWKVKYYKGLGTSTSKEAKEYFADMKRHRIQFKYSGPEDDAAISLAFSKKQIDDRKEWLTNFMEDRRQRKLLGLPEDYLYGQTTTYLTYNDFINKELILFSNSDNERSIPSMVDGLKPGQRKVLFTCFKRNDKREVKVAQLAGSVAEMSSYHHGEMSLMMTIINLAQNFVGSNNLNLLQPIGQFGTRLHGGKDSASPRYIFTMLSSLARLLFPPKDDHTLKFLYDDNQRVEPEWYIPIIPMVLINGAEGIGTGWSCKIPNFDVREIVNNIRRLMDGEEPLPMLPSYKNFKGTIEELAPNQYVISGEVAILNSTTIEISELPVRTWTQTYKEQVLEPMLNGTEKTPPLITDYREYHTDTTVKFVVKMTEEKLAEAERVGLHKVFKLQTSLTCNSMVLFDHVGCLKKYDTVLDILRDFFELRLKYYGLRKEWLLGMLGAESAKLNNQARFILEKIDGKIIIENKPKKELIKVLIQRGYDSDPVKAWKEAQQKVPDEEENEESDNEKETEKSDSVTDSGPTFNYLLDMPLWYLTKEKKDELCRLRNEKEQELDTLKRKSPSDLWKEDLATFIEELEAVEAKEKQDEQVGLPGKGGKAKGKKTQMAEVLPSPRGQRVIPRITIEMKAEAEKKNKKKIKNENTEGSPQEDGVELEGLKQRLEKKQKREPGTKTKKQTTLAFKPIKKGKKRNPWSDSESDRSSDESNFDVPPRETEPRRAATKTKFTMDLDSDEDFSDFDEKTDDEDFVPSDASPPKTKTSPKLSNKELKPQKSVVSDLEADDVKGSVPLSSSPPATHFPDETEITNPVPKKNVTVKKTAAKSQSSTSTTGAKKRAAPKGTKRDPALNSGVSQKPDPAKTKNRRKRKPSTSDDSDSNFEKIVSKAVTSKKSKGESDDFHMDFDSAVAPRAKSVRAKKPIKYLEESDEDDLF

- inhibition [7]: Active
- Activity [10]: Active
- IC50 [13]: 7310 nM
- IC50 [17]: 730 nM
- IC50 [19]: 9700 nM
- inhibition [22]: inactive
- IC50 [23]: 420 nM
- Activity [25]: inactive
- IC50 [26]: 620 nM
SMILES: O=C1c2cc(Cl)ccc2OC2c3oc4ccc(O)cc4c3CCN12 (stereo not drawn)
- Activity [1]: 70.2%
- inhibition at 10 µM [2]: 84.3%
- Activity [3]: Active
- Activity [4]: Active
- Activity [5]: Active
- Activity [6]: 18.5%
- Activity [8]: 22.9%
- IC50 [9]: 35500 nM
- selectivity ratio [11]: 18.8
- Activity [12]: Active
- inhibition at 1 µM [14]: 82.4%
- Activity [15]: 72.3%
- Activity [16]: inactive
- inhibition [18]: Active
- IC50 [20]: 1020 nM
- Activity [21]: 24.7%
- Activity [24]: Active
- Activity [27]: 12.2%
- Activity [28]: Active

From ChEMBL document CHEMBL5029185, “Discovery of Novel Polycyclic Heterocyclic Derivatives from Evodiamine for the Potential Treatment of Triple-Negative Breast Cancer” (J Med Chem, 2021)
